The source of these data is US20190117667A1, “ANTICANCER ACTIVITY OF PLATINUM(II) TETRASELENONE COMPLEXES” (King Fahd University of Petroleum and Minerals, priority 2017, published 2019).

Data set [1] concerns human breast adenocarcinoma (MCF7) cells. Nature of the data set: MTT in vitro cytotoxicity assay, MCF7. The data set is classed as cell-based. As to conditions: triplicate, tested up to 50 μM, read-out: In vitro cytotoxicity IC50 ± S.D., MCF7. Here is the method: (§1) All the human cancer cell lines were purchased from European Collection of Cell Cultures (ECACC). The cells were cultivated according to the manufacturer's manuals and maintained in an atmosphere containing 5% CO2 in a humidified incubator at 37° C. The experimental procedure was performed according to the literature. See R. […], PLoS One, 2014, 9(9), e107373, incorporated herein by reference in its entirety. All the experiments were conducted in triplicate. The results were expressed as ICso values along with standard deviations (SD). The significance of the differences between the compared groups of results was assessed by the ANOVA analysis, with p<0.05 considered to be significant (QC Expert 3.2, Statistical software, TriloByte Ltd.). See QC Expert 3.2, Statistical software, TriloByte Ltd., Pardubice, Czech Republic. 2009, incorporated herein by reference in its entirety.

In data set [2] the test system is ovarian carcinoma resistant to cisplatin (A2780R) cells. The data set is described as follows: MTT in vitro cytotoxicity assay, A2780R. It is filed as cell-based, human. As to conditions: triplicate, tested up to 50 μM, read-out: In vitro cytotoxicity IC50 ± S.D., A2780R. The procedure: as §1
Data set [3] deals with prostate carcinoma (22Rv1) cells. Nature of the data set: MTT in vitro cytotoxicity assay, 22Rv1. It is filed as cell-based, human. Particulars: for IC50: triplicate, tested up to 50 μM, read-out: In vitro cytotoxicity IC50 ± S.D., 22RvI. The procedure:
as §1

The test system of data set [4] is human ovarian carcinoma A2780 cells. The data set is described as follows: MTT in vitro cytotoxicity assay, A2780. As to conditions: triplicate, tested up to 50 μM. It is filed as cell-based. The procedure: as §1
The nature of data set [5]: ESI-MS stability and interaction with L-cysteine and reduced glutathione. The data set is classed as physicochemical. As to conditions: methanol:water (1:1, v/v), complex 10 μM, Cys 290 μM, GSH 6 μM, immediately vs 24 h after preparation. The procedure:
In order to describe the behavior of complexes in different media, i.e. to better understand their stability in protogenic media and interactions of the complexes with sulfur-containing biomolecules under physiological conditions, mass spectrometric experiments involving the interacting systems, containing the mixture of L-cysteine and reduced L-glutathione, were performed.
The electrospray-ionization mass spectrometry (ESI-MS) was used to perform the interaction experiments of the selected two cytotoxic platinum(II) complexes 4 and 5 using the ThermoLCQ Fleet Ion Trap mass spectrometer, in positive ionization mode. […] The measured solutions were injected into the mass spectrometer using the HPLC autosampler (Ultimate 3000, Dionex) in 10 μL spikes. The mass spectra were recorded in the range of 50-1400 m/z. […]
The stability in methanol:water (1:1, v/v) solutions as compared to the pure methanol and interactions of complexes in methanol:water (1:1, v/v)solutions containing the complexes 4 and 5 at the final concentrations of 10 μM and the physiological levels of L-cysteine (Cys) and L-glutathione (GSH), at 290, and 6 μM concentration, respectively, were measured by ESI+MS immediately after preparation and 24 h after preparation. […] The spectra measured immediately after preparation contained mostly the ionic species similar to those identified in reference methanol solutions. […]

The nature of data set [6]: Solubility in deuterated solvents for 195Pt NMR. The data set is classed as physicochemical. Particulars: for 195Pt NMR spectra. The procedure: The FTIR spectra of the ligands and their platinum(II) complexes were carried out on a Nicolet 6700 FTIR spectrophotometer using KBr pellets in the range between 4000 to 400 cm^−1. The ^1H, ^13C and ^77Se NMR spectra were recorded in DMSO-d6 on a Jeol JNM 500 NMR spectrophotometer operating at 500.01, 125.65 and 95.35 MHz respectively. The spectral conditions were; 32 K data points, 0.963 s acquisition time, 3.2 s pulse delay and a 5.75 μs pulse width for ^1H NMR, and 32 K data points, 0.963 s acquisition time, 2.0 s pulse delay and a 5.12 μs pulse width for ^13C NMR. The chemical shifts were measured relative to TMS. The ^77Se NMR chemical shifts were recorded relative to external reference (NaHSeO3 in D2O) at 1308.00 ppm, using 2.0 s pulse delay and using 0.311 s acquisition time. The ^195Pt NMR spectra were recorded in methanol-d4 using a Varian 400 MHz NMR spectrometer at 298 K. The spectra were referenced with respect to potassium tetrachloridoplatinate(II) in D2O at 0 ppm.
The ^195Pt NMR spectroscopy was also employed for thorough characterization of the prepared complexes, as the number of signals and their chemical shift in the ^195Pt NMR spectra provide efficient evidence about the purity and, also generally, the coordination environment of the metal. […]

A further data set deals with testicular cancer. As to conditions: cited from earlier work.
The mark [7] stands for this setting: read-out: In vitro cytotoxicity IC50 ± S.D., A2780.

Each structure is given as a SMILES string. Where “and” joins values, the source holds several entries; their conditions need not be identical. Equal entries are not always repeated. Where two headings read alike, the source gives them in different places. Some results are limits rather than exact numbers.

The term IC50 denotes the point on the concentration scale where inhibition reaches its midpoint. In the case of `CCCN1CCNC1=[Se].CCCN1CCNC1=[Se].CCCN1CCNC1=[Se].CCCN1CCNC1=[Se].[Cl-].[Cl-].[Pt+2]` [Complex 4], the IC50 is above 50 µM in data set [1]; above 50 µM in data set [2]; 46.2 ± 3.8 µM in data set [3]; 44.7 µM and 30.8 µM in data set [4] (setting [7]). Besides, the “Cytotoxicity against 22Rv1 cells (in words)” value in data set [3] is listed as “some cytotoxicity”. Besides, the “Ligand exchange reactions with L-cysteine and reduced glutathione” value in data set [5] was “relatively rapid”.

`[Cl-].[Cl-].[Pt+2].[Se]=C1NCCCCN1.[Se]=C1NCCCCN1.[Se]=C1NCCCCN1.[Se]=C1NCCCCN1` [Complex 7]: the IC50 in data set [1], in data set [2], in data set [3] and in data set [4] (setting [7]) was above 50 µM each time.

On to `CCN1CCNC1=[Se].CCN1CCNC1=[Se].CCN1CCNC1=[Se].CCN1CCNC1=[Se].[Cl-].[Cl-].[Pt+2]` [Complex 3, [Pt(N-ethylimidazolidine-2-selenone)4]Cl2], for which the IC50 in data set [1], in data set [2], in data set [3] and in data set [4] (setting [7]) was above 50 µM throughout.

Consider `NC(N)=[Se].NC(N)=[Se].NC(N)=[Se].NC(N)=[Se].[Cl-].[Cl-].[Pt+2]` [Complex 1], for which the “Solubility in methanol-d4 and deuterated N,N-dimethylformamide” value in data set [6] is reported as “insufficient solubility”.

Take `N.N.[Cl][Pt][Cl]` [Cisplatin]: in the data set with testicular cancer (treatment of testicular cancer), the “Cure rate in testicular cancer” value was “over 90%”. Also, the “Cure rate in testicular cancer, tumors discovered early” value with testicular cancer (when tumors are discovered early) was around 100%.

Regarding `[Cl-].[Cl-].[Pt+2].[Se]=C1NCCCN1.[Se]=C1NCCCN1.[Se]=C1NCCCN1.[Se]=C1NCCCN1` [Complex 6], the IC50 in data set [1], in data set [2], in data set [3] and in data set [4] (setting [7]) was above 50 µM throughout.

`CC(C)N1CCNC1=[Se].CC(C)N1CCNC1=[Se].CC(C)N1CCNC1=[Se].CC(C)N1CCNC1=[Se].[Cl-].[Cl-].[Pt+2]` [Complex 5, [Pt(N-isopropylimidazolidine-2-selenone)4]Cl2]: the IC50 is above 50 µM in data set [1]; above 50 µM in data set [2]; above 50 µM in data set [3]; 30.8 µM in data set [4] (listed as 5, read-out: In vitro cytotoxicity IC50 ± S.D., A2780); 44.7 µM in data set [4] (setting [7]). Besides, the “Ligand exchange reactions with L-cysteine and reduced glutathione” value in data set [5] is listed as “relatively rapid”.

With `[Cl-].[Cl-].[Pt+2].[Se]=C1NCCN1.[Se]=C1NCCN1.[Se]=C1NCCN1.[Se]=C1NCCN1` [Complex 2], the half-inhibitory concentration (IC50) in data set [1], in data set [2], in data set [3] and in data set [4] (setting [7]) was above 50 µM throughout. For the same compound, in data set [6], the “Solubility in methanol-d4 and deuterated N,N-dimethylformamide” value is recorded as “insufficient solubility”.
